Literature values, collected in patent EP1399019B1, “ADJUVANT COMPOSITIONS AND PESTICIDES” (HUNTSMAN PETROCHEMICAL CORPORATION, priority 2001, dated 2002).
Read-outs that look alike come from different tables or passages of the source.

In the case of `CNC(=O)CSP(=S)(OC)OC` [Cygon, dimethoate], the “time to lose 50 percent of its pest control power” value (mixed in water of pH 9) is listed as 48 min and the “time to lose 50 percent of its pest control power” value (pH of 6) is listed as 720 min.
